The values that follow come from patent US11116760B2 (Gilead Sciences, Inc., priority 2018, dated 2021).

Each structure is given as a SMILES string.

For one assay, the target named is α4β7 integrin (Homo sapiens (Human), UniProt P13612+P26010). The experiment in a line: α4β7 Integrin Cell Capture Assay. Conditions: RPMI8866 cells captured on MadCAM-1 extracellular domain-coated plate. The assay is classed as cell-based.
Sequence of α4β7 integrin (P13612 34-1032): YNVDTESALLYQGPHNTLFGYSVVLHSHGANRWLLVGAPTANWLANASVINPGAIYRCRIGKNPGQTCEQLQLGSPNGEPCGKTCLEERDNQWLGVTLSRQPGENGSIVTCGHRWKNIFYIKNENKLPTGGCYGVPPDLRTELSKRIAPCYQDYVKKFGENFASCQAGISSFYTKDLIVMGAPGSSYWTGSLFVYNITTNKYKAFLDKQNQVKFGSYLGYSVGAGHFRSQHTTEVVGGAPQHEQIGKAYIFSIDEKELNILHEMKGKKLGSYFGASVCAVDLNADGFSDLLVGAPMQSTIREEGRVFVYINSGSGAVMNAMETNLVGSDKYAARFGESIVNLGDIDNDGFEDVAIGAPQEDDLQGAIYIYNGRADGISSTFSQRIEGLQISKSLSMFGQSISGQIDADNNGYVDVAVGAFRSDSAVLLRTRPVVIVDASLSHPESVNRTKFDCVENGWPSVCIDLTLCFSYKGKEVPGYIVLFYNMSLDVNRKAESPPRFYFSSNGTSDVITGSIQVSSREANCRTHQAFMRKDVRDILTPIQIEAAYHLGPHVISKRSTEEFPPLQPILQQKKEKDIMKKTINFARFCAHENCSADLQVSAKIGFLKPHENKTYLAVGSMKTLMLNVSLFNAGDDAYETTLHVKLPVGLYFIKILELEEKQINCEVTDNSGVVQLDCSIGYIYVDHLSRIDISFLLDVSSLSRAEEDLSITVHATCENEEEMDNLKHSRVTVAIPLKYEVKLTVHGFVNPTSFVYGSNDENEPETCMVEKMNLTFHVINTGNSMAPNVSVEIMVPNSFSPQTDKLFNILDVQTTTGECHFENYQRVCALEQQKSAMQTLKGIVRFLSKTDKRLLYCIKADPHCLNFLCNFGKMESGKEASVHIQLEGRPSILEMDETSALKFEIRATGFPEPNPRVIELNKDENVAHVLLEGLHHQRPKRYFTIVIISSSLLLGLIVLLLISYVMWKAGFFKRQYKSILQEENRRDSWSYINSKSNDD
Sequence of α4β7 integrin (P26010 20-798): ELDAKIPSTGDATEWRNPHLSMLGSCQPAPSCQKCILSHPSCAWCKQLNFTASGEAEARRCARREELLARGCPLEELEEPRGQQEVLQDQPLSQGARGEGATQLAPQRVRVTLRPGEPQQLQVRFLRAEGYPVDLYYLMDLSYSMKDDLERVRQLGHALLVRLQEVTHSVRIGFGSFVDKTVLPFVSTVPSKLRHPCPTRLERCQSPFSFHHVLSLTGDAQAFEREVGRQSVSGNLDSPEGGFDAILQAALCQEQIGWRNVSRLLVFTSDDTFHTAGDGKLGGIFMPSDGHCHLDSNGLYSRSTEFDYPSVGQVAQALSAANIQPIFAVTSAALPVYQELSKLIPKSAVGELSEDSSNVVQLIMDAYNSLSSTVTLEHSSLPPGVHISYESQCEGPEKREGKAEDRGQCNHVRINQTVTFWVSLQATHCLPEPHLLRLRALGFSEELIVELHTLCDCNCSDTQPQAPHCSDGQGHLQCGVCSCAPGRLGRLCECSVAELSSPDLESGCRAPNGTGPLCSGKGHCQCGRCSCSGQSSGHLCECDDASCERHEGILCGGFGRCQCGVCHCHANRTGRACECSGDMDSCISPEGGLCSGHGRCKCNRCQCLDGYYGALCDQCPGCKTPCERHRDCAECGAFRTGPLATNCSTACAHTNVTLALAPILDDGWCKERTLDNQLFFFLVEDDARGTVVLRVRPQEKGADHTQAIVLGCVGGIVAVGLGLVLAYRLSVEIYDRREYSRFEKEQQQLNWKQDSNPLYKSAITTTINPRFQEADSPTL
Compound `Cc1cc(N2CCOC[C@@H]2C(F)(F)F)cc(F)c1C(=O)N[C@@H](Cc1ccc(-c2c(C)nc(C)n(C)c2=O)c2ncccc12)C(=O)O` [Example 460] had an EC50 of 0.15 nM.
Regarding `Cc1cc(N2CCOC[C@@H]2C(F)(F)F)cc(F)c1C(=O)N[C@@H](Cc1ccc(-c2cc(N(C)C)c(C)n(C)c2=O)c2ncccc12)C(=O)O` [Example 450], it took 1.02 nM to reach a half-maximal effect (EC50).
Same read-out and setting: the result for `Cc1cc(N2CC(F)(F)C2)c(-c2ccc(C[C@H](NC(=O)c3c(F)cc(N4CCOC[C@@H]4C(F)(F)F)cc3F)C(=O)O)c3cccnc23)c(=O)n1C` [Example 476] reads 0.337 nM.
On the same count and under the same terms, in the case of `Cc1cnc(-c2c(F)cc(C[C@H](NC(=O)c3c(C)cc(N4CCOC[C@@H]4C(F)(F)F)cc3F)C(=O)O)c3cccnc23)nc1C` [Example 465] it was 1.53 nM; in that of `Cc1cc(N2CCOC[C@@H]2C(F)(F)F)cc(F)c1C(=O)N[C@@H](Cc1ccc(-n2c(=O)c3cc(F)c(-n4ccnc4)cc3n(C)c2=O)c2ncccc12)C(=O)O` [Example 418], 0.104 nM.

The assay is the same for the next values; noted with them: Table 1; capture of α4β7 expressing RPM18866 cells on MadCAM-1 extracellular domain-coated plate.
As to `N#Cc1ccc(-c2ccc(C[C@H](NC(=O)c3c(F)cc(N4CCS(=O)(=O)CC4)cc3F)C(=O)O)c3cccnc23)c(Cl)c1` [Example 80, (S)-3-(8-(2-chloro-4-cyanophenyl)quinolin-5-yl)-2-(4-(1,1-dioxidothiomorpholino)-2,6-difluorobenzamido)propanoic acid], the EC50 worked out at 18.1 nM.
Regarding `CS(=O)(=O)Cc1cc(F)c(C(=O)N[C@@H](Cc2ccc(-c3ccc(C#N)cc3Cl)c3ncccc23)C(=O)O)c(F)c1` [Example 48, (S)-3-(8-(2-chloro-4-cyanophenyl)quinolin-5-yl)-2-(2,6-difluoro-4-((methylsulfonyl)methyl)benzamido)propanoic acid], the EC50 stood at 52.1 nM.
Regarding `N#Cc1ccc(-c2ccc(C[C@H](NC(=O)c3c(F)cc(N4CCOCC4)cc3F)C(=O)O)c3cccnc23)c(Cl)c1` [Example 79, (S)-3-(8-(2-chloro-4-cyanophenyl)quinolin-5-yl)-2-(2,6-difluoro-4-morpholinobenzamido)propanoic acid], the EC50 turned out to be 26.1 nM.
Compound `Cc1cc(C)n(C)c(=O)c1-c1ccc(C[C@H](NC(=O)c2c(F)cc(N3CCOC[C@@H]3C(F)(F)F)cc2F)C(=O)O)c2cccnc12` [Example 95, (S)-2-(2,6-difluoro-4-((R)-3-(trifluoromethyl)morpholino)benzamido)-3-(8-(1,4,6-trimethyl-2-oxo-1,2-dihydropyridin-3-yl)quinolin-5-yl)propanoic acid] had an EC50 of 0.3 nM.
In the case of `O=C(N[C@@H](Cc1ccc(-c2ncc3ccccc3c2C(F)(F)F)c2ncc(F)cc12)C(=O)O)c1c(Cl)cccc1Cl` [Example 35, (S)-2-(2,6-dichlorobenzamido)-3-(3-fluoro-8-(4-(trifluoromethyl)isoquinolin-3-yl)quinolin-5-yl)propanoic acid], the EC50 was determined as 6.2 nM. This EC50 lies about 21-fold higher than the previous one.
The same measure, in the same setting: in the case of `CC[C@@H](Nc1cc(F)c(C(=O)N[C@@H](Cc2ccc(-c3c(C(F)(F)F)c4ccccc4n(C)c3=O)c3ncccc23)C(=O)O)c(F)c1)C(F)(F)F` [Example 123, (S)-2-(2,6-difluoro-4-(((R)-1,1,1-trifluorobutan-2-yl)amino)benzamido)-3-(1-methyl-2-oxo-4-(trifluoromethyl)-1,2-dihydro-[3,8′-biquinolin]-5′-yl)propanoic acid] it was 0.9 nM.
On to `CC(C)(O)C#Cc1cc(Cl)c(C(=O)N[C@@H](Cc2ccc(-c3ccc(C#N)cc3Cl)c3ncccc23)C(=O)O)c(Cl)c1` [Example 29, (S)-3-(8-(2-chloro-4-cyanophenyl)quinolin-5-yl)-2-(2,6-dichloro-4-(3-hydroxy-3-methylbut-1-yn-1-yl)benzamido)propanoic acid], for which the EC50 was determined as 68.7 nM.
`N#Cc1ccc(-c2ccc(C[C@H](NC(=O)c3c(F)cc(N4CCCC[C@@H]4C(F)(F)F)cc3F)C(=O)O)c3cccnc23)c(Cl)c1` [Example 75, (S)-3-(8-(2-chloro-4-cyanophenyl)quinolin-5-yl)-2-(2,6-difluoro-4-((R)-2-(trifluoromethyl)piperidin-1-yl)benzamido)propanoic acid] came in with an EC50 of 80.4 nM.
Still for that read-out and setting: the result for `CC[C@@H](Nc1cc(F)c(C(=O)N[C@@H](Cc2ccc(-c3nc(C)c(C)n(C)c3=O)c3ncccc23)C(=O)O)c(F)c1)C(F)(F)F` [Example 117, (S)-2-(2,6-difluoro-4-(((R)-1,1,1-trifluorobutan-2-yl)amino)benzamido)-3-(8-(4,5,6-trimethyl-3-oxo-3,4-dihydropyrazin-2-yl)quinolin-5-yl)propanoic acid] reads 0.7 nM; that for `COc1cc(C)nc(-c2ccc(C[C@H](NC(=O)c3c(F)cc(N4CCOC[C@@H]4C(F)(F)F)cc3F)C(=O)O)c3cccnc23)n1` [Example 99, (S)-2-(2,6-difluoro-4-((R)-3-(trifluoromethyl)morpholino)benzamido)-3-(8-(4-methoxy-6-methylpyrimidin-2-yl)quinolin-5-yl)propanoic acid], 11.2 nM.
Turning to `CC[C@@H](Nc1cc(F)c(C(=O)N[C@@H](Cc2ccc(-c3c(C(F)(F)F)c4c(n(C)c3=O)CCC4)c3ncccc23)C(=O)O)c(F)c1)C(F)(F)F` [Example 126, (S)-2-(2,6-difluoro-4-(((R)-1,1,1-trifluorobutan-2-yl)amino)benzamido)-3-(8-(1-methyl-2-oxo-4-(trifluoromethyl)-2,5,6,7-tetrahydro-1H-cyclopenta[b]pyridin-3-yl)quinolin-5-yl)propanoic acid], the concentration giving a half-maximal response (EC50) amounted to 0.6 nM.
In turn, `Cc1cc(C(F)(F)F)c(-c2ccc(C[C@H](NC(=O)c3c(Cl)cccc3Cl)C(=O)O)c3cccnc23)c(=O)n1C` [Example 73, (S)-2-(2,6-dichlorobenzamido)-3-(8-(1,6-dimethyl-2-oxo-4-(trifluoromethyl)-1,2-dihydropyridin-3-yl)quinolin-5-yl)propanoic acid] registered an EC50 of 2.5 nM.
In turn, `CCOCc1cc(OC)c(-c2ccc(C[C@H](NC(=O)c3c(F)cc(C#N)cc3F)C(=O)O)c3cccnc23)c(OC)c1` [Example 42, (S)-2-(4-cyano-2,6-difluorobenzamido)-3-(8-(4-(ethoxymethyl)-2,6-dimethoxyphenyl)quinolin-5-yl)propanoic acid] displayed an EC50 of 13.4 nM.

The same assay, now with this note: Table 2; capture of α4β7 expressing RPM18866 cells on MadCAM-1 extracellular domain-coated plate.
`Cc1c(-c2ccc(C[C@H](NC(=O)c3c(F)cc(CS(=O)(=O)c4ccccc4)cc3F)C(=O)O)c3cccnc23)c(=O)n(C)c(=O)n1C` [Example 203] showed an EC50 of 1.6 nM.
As to `Cc1cc(C(F)(F)F)c(-c2ccc(C[C@H](NC(=O)c3c(F)cc(N4CC(C)OCC4C(F)(F)F)cc3F)C(=O)O)c3cccnc23)c(=O)n1C` (stereo partly shown) [Example 171], it took 0.5 nM to reach a half-maximal effect (EC50).
Still for that read-out and setting: the result for `CC[C@@H](Nc1cc(F)c(C(=O)N[C@@H](Cc2ccc(-c3nccc(C)c3C(F)(F)F)c3ncccc23)C(=O)O)c(F)c1)C(F)(F)F` [Example 252] reads 3.1 nM; that for `Cc1ccnc(-c2ccc(C[C@H](NC(=O)c3c(F)cc(N4CCOC[C@@H]4C(F)(F)F)cc3F)C(=O)O)c3cccnc23)c1C` [Example 271], 4.5 nM.
Same read-out and setting: the result for `Cc1nc(C)c(-c2ccc(C[C@H](NC(=O)c3c(F)cc(N4CCOC[C@@H]4C(F)(F)F)cc3F)C(=O)O)c3cccnc23)nc1C` [Example 274] reads 4.8 nM; that for `CCOCc1cc(OC)c(-c2ccc(C[C@H](NC(=O)c3c(F)cc(N[C@H](CC)C(F)(F)F)cc3F)C(=O)O)c3cccnc23)c(OC)c1` [Example 201], 1.5 nM; that for `O=C(N[C@@H](Cc1ccc(-c2ncc3ccccc3c2Br)c2ncccc12)C(=O)O)c1c(Cl)cccc1Cl` [Example 303], 9.4 nM.
